Experimental data as given in US20250319133A1, “METHODS FOR IMPROVING BONE HEALTH WITH BOVINE MILK EXOSOME-ENRICHED PRODUCTS AND VITAMIN K2” (ABBOTT LABORATORIES, priority 2022, published 2025).

Test system: MC3T3-E1 cells
Assay: Alizarin Red S (ARS) extracellular mineralization assay, calcium deposits
Type: cell-based, murine
Settings: 12 days in differentiation medium, 1 μM vitamin K2 and/or 15 μg/ml bovine milk exosomes
Protocol: Alizarin Red S (ARS) assay is an anthraquinone dye used to visualize and evaluate extracellular calcium deposits in cell culture. In embodiments of the invention, mineralization activity of differentiated osteoblasts are evaluated through ARS assay. To begin the assay, MC3T3-E1 pre-osteoblast cells were grown in MEM (minimum essential medium) culture medium supplemented with 10% v/v FBS (fetal bovine serum), […], 100 units/ml penicillin and 0.1 mg/ml streptomycin in a 5% CO2 and an atmosphere with 95% humidity. For osteogenic differentiation, these pre-osteoblast cells were seeded in 24-well plates at a density of 3×10^4 cells/well in complete medium for 1 day. The medium was then replaced by MEM containing 10% v/v FBS, […], 100 units/ml penicillin, 0.1 mg/ml streptomycin, […], and 50 μg/ml L-ascorbic acid. Specifically, three groups of MC3T3-E1 pre-osteoblast cells were treated. Group 1 was treated with 1 μM vitamin K2. Group 2 was treated with 15 μg/ml bovine milk exosomes. Group 3 was treated with a combination of 1 μM vitamin K2 and 15 μg/ml bovine milk exosomes. Group 4 was included as an untreated control group. In addition to analyzing Runx2 and LC3 molecular markers in Example 2, cell Groups 1-3 as described in Example 2 were treated in the presence of a differentiation medium for 12 days. […]

CC(C)=CCC/C(C)=C/CC/C(C)=C/CC/C(C)=C/CC1=C(C)C(=O)c2ccccc2C1=O [vitamin K2]
calcium deposits (extracellular matrix mineralization), ARS micrographs: abundant calcium deposits
